From patent publication US9187472B2 (AbbVie Inc., priority 2012, dated 2015)

System: PC3 cells
Test: NAMPT Cell Proliferation Assay
Type: cell-based
Settings: Homo sapiens, PC-3, 120 h, 5 days incubation, cell viability by Cell Titer Glo
In short: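 Cell Titer Glo viability after 5-day exposure (37° C, 5% CO2); PC3, 500 cells/well, RPMI + 10% heat-inactivated FBS, overnight attachment before dosing. Dose range 10 μM to 1×10^−5 μM, 10-fold steps. IC50 = sigmoidal fit of % inhibition.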

Row | SMILES | IC50
1 | CCC1CCCCN1C(=O)C(=O)N1CCC(c2ccc(C(=O)NCc3ccn4ccnc4c3)cc2)CC1 (stereo not shown) [Example 1117, 4-{1-[(2-ethylpiperidin-1-yl)(oxo)acetyl]piperidin-4-yl}-N-(imidazo[1,2-a]pyridin-7-ylmethyl)benzamide] | 65.7 nM
2 | COc1cccc(C(=O)Nc2ccc(C(=O)NCc3ccn4ccnc4c3)cc2)c1 [Example 875, N-{4-[(imidazo[1,2-a]pyridin-7-ylmethyl)carbamoyl]phenyl}-3-methoxybenzamide] | 1140 nM
3 | COc1cc(OC)cc(C(=O)N2CCC(c3ccc(C(=O)NCc4ccn5ccnc5c4)cc3)CC2)c1 [Example 919, 4-[1-(3,5-dimethoxybenzoyl)piperidin-4-yl]-N-(imidazo[1,2-a]pyridin-7-ylmethyl)benzamide] | 101 nM
4 | O=C(NCc1ccn2ccnc2c1)c1ccc(NC(=O)c2cc(F)cc(F)c2)cc1 [Example 871, 3,5-difluoro-N-{4-[(imidazo[1,2-a]pyridin-7-ylmethyl)carbamoyl]phenyl}benzamide] | 7300 nM
5 | O=C(NCc1ccn2ccnc2c1)c1ccc(C2CCN(C(=O)N3CCCC3)CC2)cc1 [Example 958, N-(imidazo[1,2-a]pyridin-7-ylmethyl)-4-[1-(pyrrolidin-1-ylcarbonyl)piperidin-4-yl]benzamide] | 21.4 nM
6 | COc1ncc(C)cc1C(=O)N1CCC(c2ccc(C(=O)NCc3ccn4ccnc4c3)cc2)CC1 [Example 1114, N-(imidazo[1,2-a]pyridin-7-ylmethyl)-4-{1-[(2-methoxy-5-methylpyridin-3-yl)carbonyl]piperidin-4-yl}benzamide] | 21.8 nM
7 | CCN(CC)CCC(=O)N1CCC(c2ccc(C(=O)NCc3ccn4ccnc4c3)cc2)CC1 [Example 928, 4-[1-(N,N-diethyl-beta-alanyl)piperidin-4-yl]-N-(imidazo[1,2-a]pyridin-7-ylmethyl)benzamide] | 106 nM
8 | Cn1nc(C(=O)N2CCC(c3ccc(C(=O)NCc4ccn5ccnc5c4)cc3)CC2)c2c1CCCC2 [Example 994, N-(imidazo[1,2-a]pyridin-7-ylmethyl)-4-{1-[(1-methyl-4,5,6,7-tetrahydro-1H-indazol-3-yl)carbonyl]piperidin-4-yl}benzamide] | 12.1 nM
9 | CNCCOC12CC3(C)CC(C)(CC(Cn4ncc(-c5ccc(C(=O)NCc6ccn7ccnc7c6)s5)c4C)(C3)C1)C2 [Example 1157, 5-[1-({3,5-dimethyl-7-[2-(methylamino)ethoxy]tricyclo[3.3.1.1^3,7]dec-1-yl}methyl)-5-methyl-1H-pyrazol-4-yl]-N-(imidazo[1,2-a]pyridin-7-ylmethyl)thiophene-2-carboxamide] | 53.1 nM
10 | O=C(NCc1ccc2ncnn2c1)c1ccc(C2CCN(C(=O)c3cc(F)cc(F)c3)CC2)s1 [Example 836, 5-[1-(3,5-difluorobenzoyl)piperidin-4-yl]-N-([1,2,4]triazolo[1,5-a]pyridin-6-ylmethyl)thiophene-2-carboxamide] | 68.3 nM
11 | O=C(NCc1ccn2ccnc2c1)c1ccc(C2CCN(C(=O)c3cc4ncccc4s3)CC2)cc1 [Example 983, N-(imidazo[1,2-a]pyridin-7-ylmethyl)-4-[1-(thieno[3,2-b]pyridin-2-ylcarbonyl)piperidin-4-yl]benzamide] | 724 nM
12 | Cn1ncc2ccc(C(=O)N3CCC(c4ccc(C(=O)NCc5ccn6ccnc6c5)cc4)CC3)cc21 [Example 1086, N-(imidazo[1,2-a]pyridin-7-ylmethyl)-4-{1-[(1-methyl-1H-indazol-6-yl)carbonyl]piperidin-4-yl}benzamide] | 9.93 nM
13 | O=C(NCc1ccc2ncnn2c1)c1ccc(C2CCN(S(=O)(=O)c3ccccc3)CC2)s1 [Example 860, 5-[1-(phenylsulfonyl)piperidin-4-yl]-N-([1,2,4]triazolo[1,5-a]pyridin-6-ylmethyl)thiophene-2-carboxamide] | 8.24 nM
14 | CC(C)(O)C(=O)N1CCC(c2ccc(C(=O)NCc3ccc4ncnn4c3)s2)CC1 [Example 850, 5-[1-(2-hydroxy-2-methylpropanoyl)piperidin-4-yl]-N-([1,2,4]triazolo[1,5-a]pyridin-6-ylmethyl)thiophene-2-carboxamide] | 54 nM
15 | O=C(NCc1ccn2ccnc2c1)c1ccc(NC(=O)C(F)(F)c2ccccc2)cc1 [Example 895, 4-{[difluoro(phenyl)acetyl]amino}-N-(imidazo[1,2-a]pyridin-7-ylmethyl)benzamide] | 730 nM

Compounds with a lower IC50, results first:

Row | IC50 | SMILES
16 | 1.56 nM | O=C(NCc1ccn2ccnc2c1)Nc1ccc(C2CCN(C(=O)c3cccc4c3OCCO4)CC2)cc1 [Example 1026, 1-{4-[1-(2,3-dihydro-1,4-benzodioxin-5-ylcarbonyl)piperidin-4-yl]phenyl}-3-(imidazo[1,2-a]pyridin-7-ylmethyl)urea]
17 | 0.662 nM | COCCn1nc(C2CC2)cc1-c1ccc(C(=O)NCc2ccn3ccnc3c2)s1 [Example 893, 5-[3-cyclopropyl-1-(2-methoxyethyl)-1H-pyrazol-5-yl]-N-(imidazo[1,2-a]pyridin-7-ylmethyl)thiophene-2-carboxamide]
18 | 2.37 nM | O=C(NCc1ccn2ccnc2c1)c1ccc(C2CCN(C(=O)c3ccoc3C(F)(F)F)CC2)cc1 [Example 1120, N-(imidazo[1,2-a]pyridin-7-ylmethyl)-4-(1-{[2-(trifluoromethyl)furan-3-yl]carbonyl}piperidin-4-yl)benzamide]
19 | 2.07 nM | CCn1cc(C(=O)N2CCC(c3ccc(C(=O)NCc4ccn5ccnc5c4)cc3)CC2)c(C(C)C)n1 [Example 1096, 4-(1-{[1-ethyl-3-(propan-2-yl)-1H-pyrazol-4-yl]carbonyl}piperidin-4-yl)-N-(imidazo[1,2-a]pyridin-7-ylmethyl)benzamide]
20 | 0.574 nM | CC1(Cn2cc(-c3ccc(C(=O)NCc4cn5ccnc5cn4)s3)cn2)CCOCC1 [Example 861, N-(imidazo[1,2-a]pyrazin-6-ylmethyl)-5-{1-[(4-methyltetrahydro-2H-pyran-4-yl)methyl]-1H-pyrazol-4-yl}thiophene-2-carboxamide]
21 | 0.313 nM | COc1ccsc1C(=O)N1CCC(c2ccc(NC(=O)NCc3ccn4ccnc4c3)cc2)CC1 [Example 1051, 1-(imidazo[1,2-a]pyridin-7-ylmethyl)-3-(4-{1-[(3-methoxythiophen-2-yl)carbonyl]piperidin-4-yl}phenyl)urea]
22 | 5.42 nM | CC1CC(C#N)(C(=O)N2CCC(c3ccc(C(=O)NCc4ccn5ccnc5c4)cc3)CC2)C1 (stereo not shown) [Example 1090, 4-{1-[(1-cyano-3-methylcyclobutyl)carbonyl]piperidin-4-yl}-N-(imidazo[1,2-a]pyridin-7-ylmethyl)benzamide]
23 | 2.83 nM | COc1ncc(C)cc1C(=O)N1CCC(c2ccc(NC(=O)NCc3ccn4ccnc4c3)cc2)CC1 [Example 1147, 1-(imidazo[1,2-a]pyridin-7-ylmethyl)-3-(4-{1-[(2-methoxy-5-methylpyridin-3-yl)carbonyl]piperidin-4-yl}phenyl)urea]
24 | 2.41 nM | Cc1cc(Cl)c(C(=O)N2CCC(c3ccc(NC(=O)NCc4ccn5ccnc5c4)cc3)CC2)c(C)n1 [Example 1041, 1-(4-{1-[(4-chloro-2,6-dimethylpyridin-3-yl)carbonyl]piperidin-4-yl}phenyl)-3-(imidazo[1,2-a]pyridin-7-ylmethyl)urea]
25 | 3.41 nM | CC(C)Cn1cc(-c2ccc(C(=O)NCc3cn4ccnc4cc3F)s2)cn1 [Example 1080, N-[(7-fluoroimidazo[1,2-a]pyridin-6-yl)methyl]-5-[1-(2-methylpropyl)-1H-pyrazol-4-yl]thiophene-2-carboxamide]
26 | 2.62 nM | Cn1cc2c(C(=O)N3CCC(c4ccc(NC(=O)NCc5ccn6ccnc6c5)cc4)CC3)cccc2n1 [Example 1149, 1-(imidazo[1,2-a]pyridin-7-ylmethyl)-3-(4-{1-[(2-methyl-2H-indazol-4-yl)carbonyl]piperidin-4-yl}phenyl)urea]
27 | 6.36 nM | O=C(NCc1ccn2ccnc2c1)c1ccc(C2CCN(C(=O)c3ccnn3C(F)F)CC2)cc1 [Example 969, 4-(1-{[1-(difluoromethyl)-1H-pyrazol-5-yl]carbonyl}piperidin-4-yl)-N-(imidazo[1,2-a]pyridin-7-ylmethyl)benzamide]
28 | 0.607 nM | CC1(C(=O)N2CCC(c3ccc(C(=O)NCc4cn5ccnc5cn4)s3)CC2)CC1 [Example 839, N-(imidazo[1,2-a]pyrazin-6-ylmethyl)-5-{1-[(1-methylcyclopropyl)carbonyl]piperidin-4-yl}thiophene-2-carboxamide]
29 | 6.44 nM | O=C(NCc1cn2ccnc2cn1)c1ccc(C2CCN(C(=O)c3ccc(F)cc3)CC2)s1 [Example 828, 5-[1-(4-fluorobenzoyl)piperidin-4-yl]-N-(imidazo[1,2-a]pyrazin-6-ylmethyl)thiophene-2-carboxamide]
30 | 2.38 nM | O=C(NCc1ccn2ccnc2c1)Nc1ccc(C2CCN(C(=O)C3CC=CCC3)CC2)cc1 (stereo not shown) [Example 945, 1-{4-[1-(cyclohex-3-en-1-ylcarbonyl)piperidin-4-yl]phenyl}-3-(imidazo[1,2-a]pyridin-7-ylmethyl)urea]
31 | 5.84 nM | CC(C)c1ncncc1C(=O)N1CCC(c2ccc(NC(=O)NCc3ccn4ccnc4c3)cc2)CC1 [Example 1140, 1-(imidazo[1,2-a]pyridin-7-ylmethyl)-3-[4-(1-{[4-(propan-2-yl)pyrimidin-5-yl]carbonyl}piperidin-4-yl)phenyl]urea]
32 | 2.96 nM | COc1csc(C(=O)N2CCC(c3ccc(NC(=O)NCc4ccn5ccnc5c4)cc3)CC2)c1 [Example 1130, 1-(imidazo[1,2-a]pyridin-7-ylmethyl)-3-(4-{1-[(4-methoxythiophen-2-yl)carbonyl]piperidin-4-yl}phenyl)urea]
33 | 3.41 nM | O=C(NCc1ccn2ccnc2c1)Nc1ccc(C2CCN(C(=O)c3nc4c(s3)CCCC4)CC2)cc1 [Example 1053, 1-(imidazo[1,2-a]pyridin-7-ylmethyl)-3-{4-[1-(4,5,6,7-tetrahydro-1,3-benzothiazol-2-ylcarbonyl)piperidin-4-yl]phenyl}urea]
34 | 3.04 nM | O=C(NCc1ccn2ccnc2c1)Nc1ccc(C2CCN(C(=O)c3cnc4c(c3)CCCC4)CC2)cc1 [Example 1035, 1-(imidazo[1,2-a]pyridin-7-ylmethyl)-3-{4-[1-(5,6,7,8-tetrahydroquinolin-3-ylcarbonyl)piperidin-4-yl]phenyl}urea]
